We go through 28 compounds from patent US8183263B2 (priority 2007, dated 2012).

Some results are limits rather than exact numbers.

For the assay, the system named is HCV replicon. Description: HCV replicon replication assay (NPT level by captured ELISA). The note with it: Hepatitis C virus, 72 h; Huh-7 HCV replicon-containing cells, three days incubation; read-out: Activity (inhibition of HCV replicon replication). Type of assay: cell-based. Summed up:
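Huh-7 cells carrying HCV subgenomic replicon (NS3–NS5B, neo reporter) treated 3 days at 37 °C with 6 concentrations from 10 to 0.03 micromolar in G418-free medium, equal DMSO across wells. Replication measured on day four as NPTII level by in-cell captured ELISA on fixed cells; interferon alpha as positive control.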
With `CCCCCCCCc1ccc(Nc2nc(-c3cnccn3)cs2)cc1C(F)(F)F` [Cmp 161, N-(4-octyl-3-(trifluoromethyl)phenyl)-4-(pyrazin-2-yl)thiazol-2-amine], the EC50 is less than 1000 nM.
`CCCCCCCCOc1ccc(Nc2nc(-c3cnccn3)c(Cl)s2)cc1C(F)(F)F` [Cmp 162, 5-chloro-N-(4-(octyloxy)-3-(trifluoromethyl)phenyl)-4-(pyrazin-2-yl)thiazol-2-amine]: the EC50 is less than 1000 nM.
As to `Fc1ccc(C#CCCOc2ccc(Nc3nc(-c4cccnc4)c(F)s3)cc2C(F)(F)F)cc1` [Cmp 163, 5-fluoro-N-(4-(4-(4-fluorophenyl)but-3-ynyloxy)-3-(trifluoromethyl)phenyl)-4-(pyridin-3-yl)thiazol-2-amine], the EC50 was less than 1000 nM.
In the case of `CCCCCCCCOc1ccc(Nc2ncc(-c3cccnc3)s2)cc1C(F)(F)F` [Cmp 164, N-(4-(octyloxy)-3-(trifluoromethyl)phenyl)-5-(pyridin-3-yl)thiazol-2-amine], the EC50 is less than 1000 nM.
With `CC/C=C\CCCCOc1ccc(Nc2nc(-c3cccnc3)c(F)s2)cc1C(F)(F)F` [Cmp 165, (Z)-5-fluoro-N-(4-(oct-5-enyloxy)-3-(trifluoromethyl)phenyl)-4-(pyridin-3-yl)thiazol-2-amine] the figure was less than 1000 nM; with `CCCCCCCCOc1ccc(Nc2nc(-c3ccncc3)c(F)s2)cc1C(F)(F)F` [Cmp 166, 5-fluoro-N-(4-(octyloxy)-3-(trifluoromethyl)phenyl)-4-(pyridin-4-yl)thiazol-2-amine], less than 1000 nM.
On to `CCCCCCCCc1ccc(Nc2nc(-c3ccncc3)c(F)s2)cc1C(F)(F)F` [Cmp 167, 5-fluoro-N-(4-octyl-3-(trifluoromethyl)phenyl)-4-(pyridin-4-yl)thiazol-2-amine], for which the EC50 is less than 1000 nM.
As to `CCCCCCCCc1ccc(Nc2nc(-c3ccc(F)nc3)cs2)cc1C(F)(F)F` [Cmp 168, 4-(6-fluoropyridin-3-yl)-N-(4-octyl-3-(trifluoromethyl)phenyl)thiazol-2-amine], the EC50 is less than 1000 nM.
As to `CCCCCCCCOc1ccc(Nc2nc(-c3cccnc3)c(Cl)s2)cc1C(C)=O` [Cmp 169, 1-(5-(5-chloro-4-(pyridin-3-yl)thiazol-2-ylamino)-2-(octyloxy)phenyl)ethanone], the EC50 was less than 1000 nM.
Turning to `CCCCCCCCc1ccc(Nc2nc(-c3cnccn3)c(Cl)s2)cc1C(F)(F)F` [Cmp 170, 5-chloro-N-(4-octyl-3-(trifluoromethyl)phenyl)-4-(pyrazin-2-yl)thiazol-2-amine], the EC50 was less than 1000 nM.
As for `FC(F)(F)c1cc(Nc2nc(-c3cccnc3)cs2)ccc1OC1Cc2ccccc2C1` [Cmp 171, N-(4-(2,3-dihydro-1H-inden-2-yloxy)-3-(trifluoromethyl)phenyl)-4-(pyridin-3-yl)thiazol-2-amine], the figure is less than 1000 nM; as for `CCCC/C=C\CCOc1ccc(Nc2nc(-c3cccnc3)c(F)s2)cc1C(F)(F)F` [Cmp 172, (Z)-5-fluoro-N-(4-(oct-3-enyloxy)-3-(trifluoromethyl)phenyl)-4-(pyridin-3-yl)thiazol-2-amine], less than 1000 nM; as for `Fc1ccc(-c2nc(Nc3ccc(OCCCC4CCCC4)c(C(F)(F)F)c3)sc2F)cn1` [Cmp 173, N-(4-(3-cyclopentylpropoxy)-3-(trifluoromethyl)phenyl)-5-fluoro-4-(6-fluoropyridin-3-yl)thiazol-2-amine], less than 1000 nM.
For `CCCCCCCCc1ccc(Nc2nc(-c3ccc(F)nc3)c(F)s2)cc1C(F)(F)F` [Cmp 174, 5-fluoro-4-(6-fluoropyridin-3-yl)-N-(4-octyl-3-(trifluoromethyl)phenyl)thiazol-2-amine], the EC50 was less than 1000 nM.
Turning to `CCCCCCCCOc1ccc(Nc2nc(-c3ccc(F)nc3)c(F)s2)cc1C(F)(F)F` [Cmp 175, 5-fluoro-4-(6-fluoropyridin-3-yl)-N-(4-(octyloxy)-3-(trifluoromethyl)phenyl)thiazol-2-amine], the EC50 was less than 1000 nM.
Consider `Fc1sc(Nc2ccc(OC3Cc4ccccc4C3)c(C(F)(F)F)c2)nc1-c1cccnc1` [Cmp 176, N-(4-(2,3-dihydro-1H-inden-2-yloxy)-3-(trifluoromethyl)phenyl)-5-fluoro-4-(pyridin-3-yl)thiazol-2-amine], for which the EC50 is less than 1000 nM.
Take `CCCCCCCCOc1ccc(Nc2nc(-c3ccc4nncn4c3)cs2)cc1C(F)(F)F` [Cmp 177, 4-([1,2,4]triazolo[4,3-a]pyridin-6-yl)-N-(4-(octyloxy)-3-(trifluoromethyl)phenyl)thiazol-2-amine]: the EC50 was less than 1000 nM.
For `CCCCCCCCc1ccc(Nc2nc(-c3ccc4nncn4c3)cs2)cc1C(F)(F)F` [Cmp 178, 4-([1,2,4]triazolo[4,3-a]pyridin-6-yl)-N-(4-octyl-3-(trifluoromethyl)phenyl)thiazol-2-amine], the EC50 is less than 1000 nM.
As for `CCCCCCCCc1cc2cc(Nc3nc(-c4ccc5nncn5c4)cs3)ccc2o1` [Cmp 179, 4-([1,2,4]triazolo[4,3-a]pyridin-6-yl)-N-(2-octylbenzofuran-5-yl)thiazol-2-amine], the figure is less than 1000 nM; as for `CCCCCCCCc1ccc(Nc2nc(-c3cncc(C#N)c3)cs2)cc1C(F)(F)F` [Cmp 180, 5-(2-(4-octyl-3-(trifluoromethyl)phenylamino)thiazol-4-yl)nicotinonitrile], less than 1000 nM.
Regarding `CCCCCCCCOc1ccc(Nc2nc(-c3cncc(C#N)c3)c(F)s2)cc1C(F)(F)F` [Cmp 181, 5-(5-fluoro-2-(4-(octyloxy)-3-(trifluoromethyl)phenylamino)thiazol-4-yl)nicotinonitrile], the EC50 is less than 1000 nM.
As for `CCCCCCCCc1ccc(Nc2nc(-c3cncc(C#N)c3)c(F)s2)cc1C(F)(F)F` [Cmp 182, 5-(5-fluoro-2-(4-octyl-3-(trifluoromethyl)phenylamino)thiazol-4-yl)nicotinonitrile], the figure is less than 1000 nM; as for `CCCCCCCCc1oc2ccc(Nc3nc(-c4cccnc4)cs3)cc2c1Cl` [Cmp 183, N-(3-chloro-2-octylbenzofuran-5-yl)-4-(pyridin-3-yl)thiazol-2-amine], less than 1000 nM.
As for `CCCCCCCCOc1ccc(Nc2nc(-c3cc(F)sc3C(N)=O)cs2)cc1C(F)(F)F` [Cmp 184, 5-fluoro-3-(2-(4-(octyloxy)-3-(trifluoromethyl)phenylamino)thiazol-4-yl)thiophene-2-carboxamide], the figure is less than 1000 nM; as for `CCCCCCCCc1ccc(Nc2nc(-c3ccc(O)c(C(N)=O)c3)c(Cl)s2)cc1C(F)(F)F` [Cmp 185, 5-(5-chloro-2-(4-octyl-3-(trifluoromethyl)phenylamino)thiazol-4-yl)-2-hydroxybenzamide], less than 1000 nM.
Consider `CCCCCCCCOc1ccc(Nc2nc(-c3ccc(O)c(C(N)=O)c3)c(Cl)s2)cc1C(F)(F)F` [Cmp 186, 5-(5-chloro-2-(4-(octyloxy)-3-(trifluoromethyl)phenylamino)thiazol-4-yl)-2-hydroxybenzamide], for which the EC50 was less than 1000 nM.
With `CCCCCCCCOc1ccc(Nc2nc(-c3cnc4[nH]c(=O)[nH]c4c3)cs2)cc1C(F)(F)F` [Cmp 187, 6-(2-(4-(octyloxy)-3-(trifluoromethyl)phenylamino)thiazol-4-yl)-1H-imidazo[4,5-b]pyridin-2(3H)-one] the figure was less than 1000 nM; with `CCCCCCCCOc1ccc(Nc2nc(-c3ccsc3C(N)=O)c(F)s2)cc1C(F)(F)F` [Cmp 188, 3-(5-fluoro-2-(4-(octyloxy)-3-(trifluoromethyl)phenylamino)thiazol-4-yl)thiophene-2-carboxamide], less than 1000 nM.
